In the supplement of paper PMC10307832:

How the values were obtained:
Assay in all cases: relative viability (nuclei count vs DMSO), 5 days (fraction); higher = more cells survive
[1] = tested on: SK-LU-1
Method in brief: (§1)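 A single step with final 0.05% Triton X-100, 1% formaldehyde and 1 ug/ml Hoechst fixed the cells and stained nuclei 5 days after treatment. Lung cancer cell lines in 1536-well plates had been treated by pin tool the day after seeding with one drug alone or a fixed anchor-drug dose plus five library-drug doses (not always all listed) in √10 steps, and nuclei were counted on 4× images. Relative viability is the ratio of nuclei in treated wells to nuclei in vehicle wells, taken as the median of duplicate plates.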

[2] = tested on: LXF-289
Method in brief: as §1

[3] = tested on: NCI-H522
Method in brief: as §1

[4] = tested on: HCC-15
Method in brief: as §1

[5] = tested on: NCI-H358
Method in brief: as §1

[6] = tested on: RERF-LC-KJ
Method in brief: as §1

[7] = tested on: A-427
Method in brief: as §1

[8] = tested on: PC-3 [JPC-3]
Method in brief: as §1

[9] = tested on: NCI-H1734
Method in brief: as §1

[10] = tested on: NCI-H1975
Method in brief: as §1

[11] = tested on: NCI-H647
Method in brief: as §1

[12] = tested on: LC-2-ad
Method in brief: as §1

[13] = tested on: SW 1573
Method in brief: as §1

[14] = tested on: NCI-H2228
Method in brief: as §1

[15] = tested on: NCI-H2342
Method in brief: as §1

[16] = tested on: NCI-H2347
Method in brief: as §1

[17] = tested on: NCI-H2126
Method in brief: as §1

[18] = tested on: HOP-62
Method in brief: as §1

[19] = tested on: NCI-H1755
Method in brief: as §1

[20] = tested on: NCI-H1915
Method in brief: as §1

[21] = tested on: NCI-H1792
Method in brief: as §1

COc1cc2nccc(Oc3ccc(NC(=O)Nc4cc(C)on4)c(Cl)c3)c2cc1OC [Tivozanib] + CCNC(=O)c1noc(-c2cc(C(C)C)c(O)cc2O)c1-c1ccc(CN2CCOCC2)cc1 [Luminespib] (partner 0.01 µM)
relative viability ([1]; first compound 0.005 µM): 0.197
relative viability ([1]; first compound 0.01581 µM): 0.211
relative viability ([1]; first compound 0.05 µM): 0.201
relative viability ([1]; first compound 0.1581 µM): 0.184
relative viability ([1]; first compound 0.5 µM): 0.207
relative viability ([2]; first compound 0.005 µM): 0.582
relative viability ([2]; first compound 0.01581 µM): 0.611
relative viability ([2]; first compound 0.05 µM): 0.641
relative viability ([2]; first compound 0.1581 µM): 0.689
relative viability ([2]; first compound 0.5 µM): 0.773
relative viability ([3]; first compound 0.005 µM): 0.903
relative viability ([3]; first compound 0.01581 µM): 1.01
relative viability ([3]; first compound 0.05 µM): 1.03
relative viability ([3]; first compound 0.1581 µM): 1.16
relative viability ([3]; first compound 0.5 µM): 1.22
relative viability ([4]; first compound 0.005 µM): 0.249
relative viability ([4]; first compound 0.01581 µM): 0.382
relative viability ([4]; first compound 0.05 µM): 0.327
relative viability ([4]; first compound 0.1581 µM): 0.398
relative viability ([4]; first compound 0.5 µM): 0.378
relative viability ([5]; first compound 0.005 µM): 0.336
relative viability ([5]; first compound 0.01581 µM): 0.568
relative viability ([5]; first compound 0.05 µM): 0.478
relative viability ([5]; first compound 0.5 µM): 0.339
relative viability ([6]; first compound 0.005 µM): 1.16
relative viability ([6]; first compound 0.01581 µM): 1.29
relative viability ([6]; first compound 0.05 µM): 1.25
relative viability ([6]; first compound 0.1581 µM): 1.25
relative viability ([6]; first compound 0.5 µM): 1.14
relative viability ([7]; first compound 0.005 µM): 1.09
relative viability ([7]; first compound 0.01581 µM): 0.902
relative viability ([7]; first compound 0.05 µM): 1.02
relative viability ([7]; first compound 0.1581 µM): 0.836
relative viability ([7]; first compound 0.5 µM): 1.01
relative viability ([8]; first compound 0.005 µM): 0.744
relative viability ([8]; first compound 0.01581 µM): 0.636
relative viability ([8]; first compound 0.05 µM): 0.751
relative viability ([8]; first compound 0.1581 µM): 0.716
relative viability ([8]; first compound 0.5 µM): 0.766
relative viability ([9]; first compound 0.005 µM): 0.2
relative viability ([9]; first compound 0.01581 µM): 0.231
relative viability ([9]; first compound 0.05 µM): 0.325
relative viability ([9]; first compound 0.1581 µM): 0.178
relative viability ([9]; first compound 0.5 µM): 0.18
relative viability ([10]; first compound 0.005 µM): 0.172
relative viability ([10]; first compound 0.01581 µM): 0.34
relative viability ([10]; first compound 0.05 µM): 0.199
relative viability ([10]; first compound 0.1581 µM): 0.198
relative viability ([10]; first compound 0.5 µM): 0.316
relative viability ([11]; first compound 0.005 µM): 0.156
relative viability ([11]; first compound 0.01581 µM): 0.527
relative viability ([11]; first compound 0.05 µM): 0.401
relative viability ([11]; first compound 0.1581 µM): 0.257
relative viability ([11]; first compound 0.5 µM): 0.148
relative viability ([12]; first compound 0.005 µM): 1.03
relative viability ([12]; first compound 0.01581 µM): 1.19
relative viability ([12]; first compound 0.05 µM): 0.993
relative viability ([12]; first compound 0.1581 µM): 0.945
relative viability ([12]; first compound 0.5 µM): 0.879
relative viability ([13]; first compound 0.005 µM): 0.644
relative viability ([13]; first compound 0.01581 µM): 0.224
relative viability ([13]; first compound 0.05 µM): 0.248
relative viability ([13]; first compound 0.1581 µM): 0.226
relative viability ([13]; first compound 0.5 µM): 0.343
relative viability ([14]; first compound 0.005 µM): 0.0873
relative viability ([14]; first compound 0.01581 µM): 0.219
relative viability ([14]; first compound 0.05 µM): 0.112
relative viability ([14]; first compound 0.1581 µM): 0.185
relative viability ([14]; first compound 0.5 µM): 0.109
relative viability ([15]; first compound 0.005 µM): 0.673
relative viability ([15]; first compound 0.01581 µM): 0.656
relative viability ([15]; first compound 0.05 µM): 0.802
relative viability ([15]; first compound 0.5 µM): 0.626
relative viability ([16]; first compound 0.01581 µM): 0.488
relative viability ([16]; first compound 0.05 µM): 0.886
relative viability ([16]; first compound 0.5 µM): 0.249
relative viability ([17]; first compound 0.005 µM): 0.823
relative viability ([17]; first compound 0.01581 µM): 0.964
relative viability ([17]; first compound 0.05 µM): 0.875
relative viability ([17]; first compound 0.1581 µM): 0.697
relative viability ([17]; first compound 0.5 µM): 0.855
relative viability ([18]; first compound 0.005 µM): 0.857
relative viability ([18]; first compound 0.01581 µM): 0.961
relative viability ([18]; first compound 0.05 µM): 0.894
relative viability ([18]; first compound 0.1581 µM): 0.932
relative viability ([18]; first compound 0.5 µM): 0.918
relative viability ([19]; first compound 0.005 µM): 0.466
relative viability ([19]; first compound 0.01581 µM): 0.346
relative viability ([19]; first compound 0.05 µM): 0.406
relative viability ([19]; first compound 0.1581 µM): 0.329
relative viability ([19]; first compound 0.5 µM): 0.453
relative viability ([20]; first compound 0.005 µM): 0.719
relative viability ([20]; first compound 0.01581 µM): 0.855
relative viability ([20]; first compound 0.05 µM): 0.848
relative viability ([20]; first compound 0.1581 µM): 0.799
relative viability ([20]; first compound 0.5 µM): 0.8
relative viability ([21]; first compound 0.005 µM): 0.457
relative viability ([21]; first compound 0.01581 µM): 0.344
relative viability ([21]; first compound 0.05 µM): 0.598
relative viability ([21]; first compound 0.1581 µM): 0.415
relative viability ([21]; first compound 0.5 µM): 0.551
